As a reminder, the melting point is the temperature, or range, at which the solid turns liquid.

For the compound `Cn1c(Cc2cccc(C(F)(F)F)c2)nc2c(-c3cccc(C(=O)NCCC#N)c3)cccc21`, the melting point was 168 to 169 °C. `CC(C)(C)OC(=O)NC[C@H]1CN(c2ccc3c(c2)CCCCC3=O)C(=O)O1` returned a melting point of 155 to 157 °C. Compound `COC1=C(OC)C(=O)C2=C(CCC(CCOc3ccc(Cl)cc3)CC2)C1=O` returned a melting point of 117 to 119 °C. For `COc1cccc(-c2ccc3c(c2)C(C)(C)OC(=O)N3)c1` the value was 164 to 165 °C; for `O=C(O)Cc1c(C(=O)c2ncc[nH]2)[nH]c2ccc(Cl)cc12`, 253 to 254 °C; for `Cc1oc(-c2ccccc2)nc1COc1ccc(/C=C/C(=O)C(=O)O)cc1`, 197 to 198 °C. The same measure for `CN(C(CCn1c(=O)[nH]c2ccccc2c1=O)C(=O)NO)S(=O)(=O)c1ccc(Oc2cccc(Cl)c2)cc1` (configuration not stated): 137 to 140 °C. For `CC(C)(C)C(=O)CN1C(=O)c2ccccc2C1=O` the value was 96 to 99 °C; for `Cc1ccc(N(C)S(=O)(=O)c2cccs2)c2[nH]c(C(=O)O)cc12`, 223 to 225 °C.

In turn, `CC(C)(C)OC(=O)N1CCC(c2nc(-c3ccncc3)c(-c3ccc(F)cc3)[nH]2)CC1` came in with a melting point of 157 to 160 °C. The compound `CCCOc1ccc(-c2ccc3c(c2)C=C(C(=O)OC)CCN3C=O)cc1` displayed a melting point of 152 to 153 °C. The same measure for `COc1ccc2c(c1)CCC1C2CCC2(C)C(=O)C(C)CC12` (configuration not stated): 115 to 116 °C.

`c1ccc(COc2cccnc2Cn2ccnc2)cc1` yielded a melting point of 73 to 74 °C. For `C=C(c1cc(Cl)ccc1N1CCCCC1)C(C(N)=O)c1ccc(C(=O)O)cc1` (configuration not stated) the value was 198 to 200 °C. `N#CC1(CCc2ccccc2)CCCCN1C(=O)c1ccccc1` (configuration not stated) showed a melting point of 65 to 67 °C. For `COc1ccc(N(C)c2nc(N)nc3[nH]c4cccc(Cl)c4c23)cc1` the value was 163 to 164 °C; for `CN1C(=O)CC[C@]2(C)c3ccc(-c4cccc(CNC(c5ccccc5)c5ccccc5)c4)cc3CC[C@@H]12`, 55 to 57 °C.

As for `COC(=O)c1cncn1C(c1ccccc1)c1ccccn1` (configuration not stated), the melting point was determined as 96.3 °C. For `CCOC(=O)COc1c(Cl)c(O)c2c(c1Cl)OC1(CCCCC1)CC2=O` the value was 134 to 135 °C; for `CN1C(=O)C2C3CCC(C3)C2(c2ccc(F)c(F)c2)C1=O` (configuration not stated), 96 to 100 °C. The same measure for `CC(C)(C)NCC(O)COc1ccc(F)cc1-c1ccc(=S)[nH]n1` (configuration not stated): 170 to 173 °C; for `NNc1ncc(-c2ccc(F)cc2)nn1`: 231 to 235 °C; for `CC(C)[C@H](CO)Cc1ccc(C(C)(C)C)cc1`: 49 to 51 °C. The same measure for `Cc1nc(/C=C/c2cccc(Cl)c2F)no1`: 95 to 98 °C; for `NNC(=O)N(O)C1c2ccccc2Oc2ccccc21`: 186 °C; for `C#CCN1C(Oc2ccc(C)cc2)=NS(=O)(=O)N=C1Oc1ccc(C)cc1`: 279 to 280 °C. The compound `Oc1cc(-c2ccc(Cl)cc2Cl)n[nH]1` returned a melting point of 198 °C. In turn, `CCCCc1oc2ccccc2c1C(=O)Nc1ccc2cc(O)ccc2c1` returned a melting point of 162 to 164 °C. Consider `Cc1ccc(NC(=O)NCCN2CCN=C2c2ccccc2Cl)cc1`, for which the melting point was 108 to 111 °C. In the case of `COc1ccc(Cl)c(S(=O)(=O)NC(=O)c2cn3cc(C(F)(F)F)cc(Cl)c3n2)c1`, the melting point was 211 to 212 °C.

Compound `COc1ccc(C2=NN(C3CCN(S(=O)(=O)c4ccccc4F)CC3)C(=O)CC2)cc1OC` yielded a melting point of 198 to 199 °C. The same measure for `O=C1[C@H](CC[C@H](O)c2ccc(F)cc2)[C@@H](c2ccc(O)c(-c3ccccc3)c2)N1c1ccc(F)cc1`: 113 °C; for `ON=C1CCCCC1=Cc1ccccc1`: 114 to 115 °C; for `CCSC(C)(C)C(=O)CC(=O)Nc1cc([N+](=O)[O-])ccc1OC`: 138 to 140 °C. For `O=C(O)c1cc(Cl)cc2c1OCCO2` the value was 180 °C.

The compound `COc1cc(C(C)=O)ccc1OC1CCCC1` returned a melting point of 55 to 56 °C. The same measure for `O=C(Cn1c(-c2cccc(Cl)c2)nc2cccnc21)N1CCCCC1`: 140 to 150 °C; for `O=C(O)c1ncn2c1[C@@H]1CCN1C(=O)c1ccccc1-2`: 232 °C; for `Cc1ncccc1O[C@@H]1COc2ccc(OCc3ccccc3)cc2[C@@H]1O` (relative stereo): 133 to 134 °C. The same measure for `NS(=O)(=O)c1cccc2c1ccc1nc(O)c(O)nc12`: 420 °C. The same measure for `CC(=O)c1cc2c(cc1NC(=O)C(O)(CC(C)(C)c1ccccc1)C(F)(F)F)COC2=O` (configuration not stated): 195 to 199 °C; for `CC(=O)Nc1cc([C@H](O)CN[C@H](C)Cc2ccc(O)cc2)ccc1O`: 97 to 100 °C. Take `COc1cc(C(=O)N2Cc3ccc(C(=O)NCc4ccc(C)cc4)n3Cc3ccccc32)ccc1-c1ccccc1C`: the melting point lay in the range of 179 to 180 °C. For `CNS(=O)(=O)Oc1ccc2c(c1)C(C)(C)C(N1CCOCC1)O2` (configuration not stated), the melting point is 129 to 131 °C.

Take `CC(C)OC(=O)c1cc(Cl)c(Cl)c(Cl)n1`: the melting point lay in the range of 105 to 106 °C. The same measure for `COc1cc2c(cc1C)CCN(C)C2C1(c2ccsc2)CC1` (configuration not stated): 103 to 105 °C; for `CCc1csc2c(C(=O)O)c(=O)c3cc(F)c(N4CCNCC4)cc3n12`: 247 to 251 °C; for `O=C(NCCCl)NCc1cccnc1`: 95 °C. `COc1ccc(-c2cc(C(=O)O)n(C)n2)cc1` yielded a melting point of 190 to 193 °C. The same measure for `CS(=O)(=O)c1ccc(-c2cnn(Cc3ccccc3)c(=O)c2-c2ccc(F)c(Cl)c2)cc1`: 134 to 136 °C; for `CCCC(=NOCC)C1=C(O)CC(c2ccc(S(C)=O)cc2)CC1=O` (configuration not stated): 72 to 74 °C; for `CCOC(=O)c1nc2sc(C(=O)OCC)c(C)c2c(=O)[nH]1`: 237 to 238 °C. The same measure for `Clc1c(NC2=NCCO2)ccc2[nH]ncc12`: 223 to 225 °C; for `O=P(c1ccccc1)(c1ccccc1)c1cc(P(=O)(c2ccccc2)c2ccccc2)nc(P(=O)(c2ccccc2)c2ccccc2)n1`: 235 to 236 °C. The same measure for `Cc1c(NC(=O)c2ccc(-c3ccc(F)cc3)cc2)ccc2cc(CN3CCC(CCCC(N)=O)CC3)cnc12`: 232 to 234 °C. For the compound `COc1ccc(C2CNCCc3c2cc(OC)c(OC)c3Cl)cc1` (configuration not stated), the melting point is 139 to 142 °C.

Compound `O=C(O)c1cccc(N2C(=O)c3ccc(C(=O)O)cc3C2=O)c1` displayed a melting point above 380 °C. For `CCOc1cc2cc(CO)cc(-c3ccnc(-n4nc(-c5ccccc5)c5ccccc5c4=O)c3)c2cc1OCC` the value was 203 to 204 °C; for `Cc1cc(O)c2cccc(OCc3c(Cl)ccc([N+](=O)[O-])c3Cl)c2n1`, 255 to 258 °C; for `CN1C(=O)N(c2cc(Cl)nc(Cl)c2)C(=O)[C@]12CNC[C@H]2c1ccc(C#N)cc1` (relative stereo), 202 °C. For `O=c1[nH]c2cc([N+](=O)[O-])cnc2n1-c1ccccc1F` the value was 234 to 236 °C; for `CCCC(=O)c1cnc2c(OC)cc(O)cc2c1Nc1ccc(O)cc1C`, 251 to 253 °C. `Cc1ccccc1C(=O)Nc1ccc(C(=O)N2Cc3ccccc3Cc3ccccc32)c(Cl)c1` yielded a melting point of 138 to 150 °C. The same measure for `CC(C)CC(CC(=O)NO)C(=O)N[C@H]1Cc2cn(c3ccccc23)CCCCCCCNC1=O` (some centres not stated): 197 to 201 °C. For `Fc1cccc(F)c1C1=NC(c2ccc(I)cc2)CO1` (configuration not stated) the value was 105 to 106 °C; for `COCC(=O)Nc1cccc(C2(C3CCN(C(=O)c4ccc(C(=O)OC)cc4)CC3)N=C(N)N(C)C2=O)c1` (configuration not stated), 161 to 163 °C; for `O=C(O)C(=O)Nc1c(-c2ccccc2)c(=O)[nH]c2cc(Cl)ccc12`, 240 °C. The same measure for `Clc1cccc(Oc2nnc(Cc3ccncc3)c3ccccc23)c1`: 143 to 145 °C; for `CC(C)(C)OC(=O)N1CCC[C@@H](OC(=O)c2ccc(C(=O)c3ccccc3)cc2)[C@H](NC(=O)c2ccc(OC(C)(C)C)cc2)C1`: 145 to 148 °C; for `CCOC(=O)c1ccc(N2CCN(C)CC2)nn1`: 106 °C. For `N#Cc1cnc(N[C@H]2CC[C@H](O)CC2)c([N+](=O)[O-])c1`, the melting point lay within 157 to 158 °C.

For `O=C(CCl)Nc1ccc2c(c1NC(=O)c1ccc(Cl)cc1)C(=O)c1ccccc1C2=O`, the melting point was in the range of 224 to 225 °C. The same measure for `COc1ccc(NC(=O)c2ccc(C#N)cc2)cc1`: 155 to 157 °C; for `COC(=O)[C@H]1[C@H](NC(C)=O)C(=O)O[C@@H]1C`: 105 to 106 °C. For `Cc1nn(-c2ccc(F)cc2F)cc1C(=O)O`, the melting point fell in the range of 245 to 247 °C. The compound `COc1ccc(CN(C)CCCSc2ccc(NC(=O)c3cccc4c(=O)c5ccccc5sc34)cc2)cc1OC` came in with a melting point of 148 °C. For `CC(=O)Nc1ccc(OC/C=C(\C)C=O)cc1` the value was 127 to 130 °C; for `Cn1nnnc1SCC1(C)SC2C(NC(=O)Cn3cnnn3)C(=O)N2C1C(=O)O` (configuration not stated), 152 to 154 °C; for `CC12C=CC(=O)C(N)=C1C=CC1C2CCC2(C)C(=O)CCC12` (configuration not stated), 206 to 208 °C.

For `CCn1c(Nc2ccc(C(F)(F)F)cc2C(F)(F)F)nc(C(F)(F)F)c(Cl)c1=O`, the melting point amounted to 124 °C. In turn, `Cn1cc(-c2ccccc2)c(=O)c(-c2cc(Br)ccc2F)c1` yielded a melting point of 148 to 150 °C.

With `COC(=O)N(C)c1cn2cc(Sc3ccccc3)ccc2n1`, the melting point lay within 147 to 149 °C. The same measure for `COc1ccc(/C=C/C(=O)CC(=O)/C=C/c2ccc(O)cc2Cl)cc1O`: 120 to 130 °C; for `Cc1cc(C2=C(/C=C/[C@H]3C[C@H](O)CC(=O)O3)C(C)(C)CC3(C2)SCCCS3)ccc1F` (relative stereo): 136 to 138 °C.

As to `COC(=O)c1oc(Cl)nc1C`, the melting point lay within 69 to 71 °C. For `COc1cc2cc(C(C#N)N3CCOCC3)sc2cc1OC` (configuration not stated), the melting point was in the range of 196 to 199 °C. The same measure for `CCOC(=O)N(C)NC1=Nc2sc(CC)cc2C(c2ccccc2Cl)=NC1`: 172 to 174 °C.
